The values below are quoted from earlier work in patent US11324821B2, “Triterpene saponin analogues” (ADJUVANCE TECHNOLOGIES, INC., priority 2017, dated 2022).

The conditions of this data set: cited from earlier work.

Take QS-21: the “tolerated / maximum dose” value (cancer patients, above it local erythema and systemic flu-like symptoms) was 100 to 150 µg. The maximum dose (in vivo) was 50 µg.
